Data on eight compounds can be found in PubChem BioAssay (NCI).

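Growth conditions: 96-well plates. Treatment: test compound, 48 hours, 5 concentrations. Analysis: linear interpolation between bracketing concentrations; unreached endpoints set to highest concentration. Definition used: TGI = concentration required for complete inhibition of growth.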

Broadly, the TGI is the concentration at which net growth stops. A higher TGI goes with lower sensitivity of the cells.

What all share (experiment): DTP human tumour cell line panel, 48 h
The subject of assay [1] is SN12C renal.
The test system of assay [2] is IGROV1 ovarian.
In assay [3] the test system is HCC-2998 colon.
For assay [4], the system named is OVCAR-8 ovarian.
For assay [5], the system named is U251 CNS.
The subject of assay [6] is M14 melanoma.
The test system of assay [7] is RPMI-8226 leukemia.
The test system of assay [8] is SK-MEL-2 melanoma.
Assay [9] has as its system SK-MEL-28 melanoma.
The subject of assay [10] is RXF 393 renal.
Assay [11] has as its system UACC-62 melanoma.
In assay [12] the test system is 786-0 renal.
Assay [13] has as its system EKVX NSCLC.
The test system of assay [14] is KM12 colon.
The test system of assay [15] is OVCAR-5 ovarian.
Assay [16] relates to SF-539 CNS.
For assay [17], the system named is PC-3 prostate.
For assay [18], the system named is HCT-15 colon.
The subject of assay [19] is T-47D breast.
The subject of assay [20] is MDA-N.

Regarding `CCCCCCCc1cc(OC(=O)c2c(C)cc(OC)cc2O)cc(O)c1C(=O)O`, the TGI was 82.9 µM in assay [1]; 55.3 µM in assay [2]; 35.6 µM in [3]; 77.9 µM in [4]; 32.1 µM in assay [5]; 36.6 µM in assay [6]. The TGI in [7] worked out at 74 µM; in [8] it was 36.9 µM; in [9], 38.7 µM; in assay [10] it was 52.2 µM; in assay [11] it was 43.7 µM; in [12] it was 36.8 µM. In addition, the TGI worked out at 77 µM in assay [13], 46.2 µM in [14], 32.1 µM in [15] and 32.6 µM in assay [16].
Turning to `Cc1ccc(O)c(C(c2ccc([N+](=O)[O-])cc2)c2cc(C)ccc2O)c1`, the TGI in [1] amounted to 27.3 µM; in assay [2], 25.2 µM; in [3] it was 9.66 µM; in assay [4] it was 30.7 µM; in assay [17], 14.3 µM; in [5] it was 48.8 µM. Moreover, the TGI in assay [6] stood at 26.7 µM; in [7] it was 29.8 µM; in assay [8], 23.9 µM; in assay [9], 38.4 µM; in [10] it was 26 µM; in assay [11], 21.7 µM. Further, the TGI turned out to be 44.5 µM in [12]; 23.8 µM in assay [18]; 34.3 µM in assay [13]; 20.7 µM in assay [14]; 34.7 µM in [19]; 28.9 µM in assay [15]. This compound also yielded a TGI in assay [16] of 32.1 µM.
On to `O=S(=O)(N/N=C1\CC2CCC1C2)c1ccccc1` (stereo not given), for which the TGI in assay [1], in assay [2], in [4], in assay [17], in assay [5] and in assay [6] was > 100 µM each time. The TGI in [7], in [8], in [9], in assay [11], in assay [12] and in [20] was > 100 µM in each case. Moreover, the concentration for total growth inhibition (TGI) in assay [18], in [13], in assay [14] and in [15] was > 100 µM each time.
`CCOc1ccc(NC(=O)C(=O)NO)cc1`: the concentration for total growth inhibition (TGI) in assay [1], in assay [2], in assay [3], in assay [4], in assay [5] and in [6] was > 100 µM in each case. Besides, the TGI in assay [7], in assay [8], in assay [9], in assay [10], in [11] and in [12] was > 100 µM each time. The TGI in assay [18], in assay [13], in assay [14], in [15] and in [16] was > 100 µM throughout.
Take `O=C1NC(=O)C(CC(C(=O)C(=O)Nc2ccccc2Cl)C(=O)c2ccc3ccccc3c2)C(=O)N1` (stereo not given): the TGI in [1], in assay [2], in assay [3], in assay [4], in assay [17] and in [5] was > 100 µM throughout. In addition, the TGI in assay [6], in [8], in [9], in assay [10], in [11] and in assay [12] was > 100 µM in each case. Besides, the TGI in assay [20], in assay [18], in [13], in assay [14], in [15] and in [16] was > 100 µM in each case.
For the compound `O=C1[C@@H]2C(c3ccc(Cl)cc3Cl)=NO[C@@H]2C(=O)N1c1ccc(Cc2ccc(N3C(=O)[C@H]4C(c5ccc(Cl)cc5Cl)=NO[C@H]4C3=O)cc2)cc1`, the TGI in [1], in assay [2], in assay [3], in assay [4], in [6] and in [7] was > 100 µM each time. In addition, the TGI in [8] was > 100 µM; in assay [9], > 100 µM; in [10], 68.8 µM; in [11], > 100 µM; in assay [12], > 100 µM; in assay [18], > 100 µM. For the same compound, the TGI in assay [13], in assay [14], in assay [15] and in [16] was > 100 µM in each case.
With `CCOC(=O)[C@]12C(=C(c3ccccc3)O[C@H]3C=CCC[C@H]31)C(=O)C(=O)N2c1ccccc1`, the TGI is > 100 µM in assay [1]; > 100 µM in assay [3]; > 100 µM in [4]; > 100 µM in assay [17]; 38.6 µM in assay [5]; > 100 µM in assay [6]. Besides, the TGI in [7] is 51.6 µM; in assay [8], > 100 µM; in [10], > 100 µM; in assay [11], > 100 µM; in assay [12] it was > 100 µM; in [18], > 100 µM. The TGI in [14], in assay [19], in assay [15] and in assay [16] was > 100 µM throughout.
`COc1ccc(/C(Cl)=C(/c2ccc(O)cc2)c2ccc(OCCN(C)C)cc2)cc1`: the total growth inhibition concentration (TGI) in assay [1] worked out at 26.2 µM; in assay [2], 33.2 µM; in [3] it was 30.5 µM; in assay [4], 28.9 µM; in [5], 23.3 µM; in [6], 4.22 µM. The concentration for total growth inhibition (TGI) in [7] is 21.6 µM; in assay [8], 22.4 µM; in assay [9], 13.4 µM; in [10] it was 18.4 µM; in [11] it was 32.9 µM; in [12], 18.8 µM. Further, the TGI worked out at 23.3 µM in assay [18]; 30.3 µM in [13]; 21.1 µM in assay [14]; 26.1 µM in assay [15]; 23.8 µM in assay [16].
